Earlier results on three compounds are cited in US20170209372A1, “A Method of Preparing Amorphous Solid Dispersion in Submicron Range by Co-Precipitation” (HOVIONE INTERNATIONAL LTD, priority 2014, published 2017).

Each structure is given as a SMILES string.

Turning to `C(=C\c1ccccc1)/CN1CCN(C(c2ccccc2)c2ccccc2)CC1` [Cinnarizine], the “Log P” value is listed as approximately 5.77. Consider `NC(=O)N1c2ccccc2C=Cc2ccccc21` [Carbamazepine], for which the “Log P” value is listed as approximately 2.6. For `CCC(C)n1ncn(-c2ccc(N3CCN(c4ccc(OCC5COC(Cn6cncn6)(c6ccc(Cl)cc6Cl)O5)cc4)CC3)cc2)c1=O` (stereo not drawn) [Itraconazole], the “Log P” value is recorded as 4.4.
